Experimental data published in US20260217652A1, “PHENYL-SUBSTITUTED HETEROARYL COMPOUND AND PHARMACEUTICAL COMPOSITION COMPRISING SAME, PREPARATION METHOD THEREFOR AND USE THEREOF” (SHANGHAI MEIYUE BIOTECH DEVELOPMENT CO., LTD., priority 2023, published 2026).
Where two headings read alike, the source gives them in different places.

Key:
[1] = In vitro liver microsome stability, mouse; format: in vitro ADME; conditions: liver microsomes, 0.5 mg/mL microsomes, 1 μM compound, NADPH, 37° C., read-out: Mouse liver microsomes Half-life T1/2
Method: (§1) The reference compound used in this experiment was Ketanserin, and the final concentration of microsomes in the experimental system was 0.5 mg/mL. The PBS buffer was a 50 mM K2HPO4 buffer. The concentration of the test compound was 1 μM. The microsomes were added to PBS, and the control/test compounds were respectively added to the corresponding reaction systems, mixed thoroughly, and pre-incubated in a 37° C. water bath for 5 minutes. The reaction was initiated by adding 20 mM NADPH solution under 37° C. water bath conditions (for the No NADPH samples, an equal volume of PBS solution was used as a substitute for the 20 mM NADPH solution). At the reaction time points of 0 min, 10 min, 30 mun, 60 min, and 90 min, 30 μL of reaction samples were taken from each reaction system (for the No NADPH samples, sampling was performed at 0 min and 90 min), and the reaction was immediately terminated by adding 300 μL of the internal standard acetonitrile solution. After centrifugation at 4000 rpm, the supernatant was taken and mixed thoroughly with an equal volume of pure water. The samples at each time point were analyzed by LC-MS/MS (AB Triple Quard 5500) to determine the compound content, and the T1/2 was calculated.

[2] = test system: TNF-α in human PBMC cells; experiment: In vitro TNF-α activity assay in human PBMC cell supernatant (LPS, ELISA); format: cell-based; conditions: LPS 100 ng/mL, read-out: p38 MAPK/TNF-α IC50
Method: The inhibitory effect of the compound on TNF-α in the supernatant of human PBMC cells was evaluated using an ELISA detection kit (Beyotime, PI518). The test compound was dissolved in DMSO to obtain a 10 mM stock solution and stored at −20° C. for future use. The initial concentration of the compound was […], followed by 5-fold serial dilution to obtain 6 concentrations. Cells were plated in duplicate, and ELISA was performed in single wells. The final concentration of DMSO was 0.4%. Alternatively, the initial concentration of the compound, dilution factor, number of concentration gradients, and replicates could be adjusted based on the specific screening conditions.
Fresh human peripheral blood mononuclear cells (PBMCs) (Sailybio) were seeded at a density of 2×10^5 cells per well in a 96-well plate (Corning, 3599), with each well containing 100 μL of RPMI-1640 (Gibco #A1049101)+10% FBS (Gibco, 10099141C), and incubated overnight at 37° C. under 5% CO2. Test compounds were added to the 96-well culture plate at a volume of 25 μL per well. After 1 hour, 5 μL of LPS was added to achieve a final concentration of 100 ng/mL. No LPS and compound were added to the negative control wells, and no compound was added to the positive control wells. The mixture was further incubated for 24 hours at 37° C. under 5% CO2. Subsequently, the cell culture supernatant was collected by centrifugation at 500 rcf for 8 minutes. The concentration of TNF-α was measured according to the operation manual of the ELISA kit. The concentration-effect curve was fitted using GraphPad Prism 8 software, and the compound concentration resulting in 50% inhibition, IC50, was calculated.

p38 MAPK/MK2 = biological target: T1, p38 MAPK/MK2 (Homo sapiens, UniProt Q16539); experiment: In vitro activity assay of p38 MAPK/MK2 (Z-LYTE kinase assay kit); format: biochemical; conditions: active p38α, inactive MK2, Ser/Thr 4; 1-hour reaction at 20° C.
T1 construct: purchased Carna (p38α); Abcam (MK2) 04-152; 79910
Method: (§2) The inhibitory effect of the compound on p38 MAPK/MK2 was evaluated using the Z-LYTE kinase assay kit (Thermo, PV3177). The test compound was dissolved in DMSO to obtain a 10 mM stock solution and stored at −20° C. for future use. The initial concentration of the compound was […], with 1% DMSO, 5-fold serial dilution, 8 concentrations, and duplicate wells. […] After a 1-hour reaction at 20° C., Development Reagent A diluted 2048-fold was added to each well, followed by incubation at room temperature for 1 hour. The reaction was terminated by adding 5 μL of stop buffer, and the plate was read using a microplate reader (Ex. 400 nm, Em. 445 nm; Ex. 400 nm, Em. 520 nm). The concentration-effect curve was fitted using GraphPad Prism 8 software, and the compound concentration resulting in 50% inhibition, IC50, was calculated.

[3] = In vitro liver microsome stability, rat; format: in vitro ADME; conditions: liver microsomes, 0.5 mg/mL microsomes, 1 μM compound, NADPH, 37° C., read-out: Rat liver microsomes Half-life T1/2
Method: as §1

[4] = In vitro liver microsome stability, human; format: in vitro ADME; conditions: liver microsomes, 0.5 mg/mL microsomes, 1 μM compound, NADPH, 37° C., read-out: Human liver microsomes Half-life T1/2
Method: as §1

p38 MAPK/MK5 = biological target: T2, p38 MAPK/MK5 (Homo sapiens, UniProt Q16539); experiment: In vitro activity assay of p38 MAPK/MK5 (Z-LYTE kinase assay kit); format: biochemical; conditions: active p38α, inactive MK5, Ser/Thr 4; 4-hour reaction at 20° C.
T2 construct: purchased Carna (p38α); Abcam (MK5) 04-152; 217826
Method: as §2, with “MAPK/MK5” for “MAPK/MK2”, “4-hour” for “1-hour”, “µL” for “μL”

[5] = Pharmacokinetic evaluation in mice; format: in vivo; conditions: mouse, plasma; for AUC(0-t): read-out: Area under curve AUC0-24 h; for clearance: read-out: Clearance CL (converted); for half-life: read-out: Half-life T1/2 (converted); for C0: read-out: Initial concentration C0; for Vd: read-out: Volume of distribution Vd; for bioavailability: read-out: Bioavailability F %; for Cmax: read-out: Maximum concentration Cmax
Method: The compound was weighed and dissolved in a mixed solvent of DMAC: Solutol: PBS (1:1:8. After intravenous/gastric administration to mice, whole blood ([…]) was collected at 0.083, 0.25, 0.5, 1, 2, 4, 7, and 24 hours. The samples were anticoagulated with EDTA-K2, immediately centrifuged at 4000 rpm for 5 minutes at 4° C., and the supernatant was frozen in a −80° C. refrigerator. Plasma sample processing: The samples were precipitated with an internal standard-containing CH3CN precipitant, followed by centrifugation at 12700 rpm for 10 min. The supernatant was collected and analyzed by LC-MS/MS (AB Triple Quard 5500) to obtain the plasma drug concentration. The parameters were calculated using a non-compartmental model in Winnolin version 8.1.

[6] = intravenous injection group 1 mg/kg
[7] = po, intragastric administration group 5 mg/kg

T2 sequence (Q16539 whole entry): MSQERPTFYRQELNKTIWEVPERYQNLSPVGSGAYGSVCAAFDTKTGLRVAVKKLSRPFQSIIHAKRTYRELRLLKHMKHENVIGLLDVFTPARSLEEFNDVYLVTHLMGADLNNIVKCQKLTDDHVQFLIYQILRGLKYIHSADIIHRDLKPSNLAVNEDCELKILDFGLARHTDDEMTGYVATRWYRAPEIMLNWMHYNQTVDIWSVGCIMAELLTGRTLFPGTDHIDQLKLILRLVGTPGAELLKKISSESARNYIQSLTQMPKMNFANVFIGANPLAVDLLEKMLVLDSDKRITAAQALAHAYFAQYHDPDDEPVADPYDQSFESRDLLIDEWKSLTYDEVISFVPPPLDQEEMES
T1 sequence (Q16539 whole entry): as above
T1 sequence (P49137 whole entry partner): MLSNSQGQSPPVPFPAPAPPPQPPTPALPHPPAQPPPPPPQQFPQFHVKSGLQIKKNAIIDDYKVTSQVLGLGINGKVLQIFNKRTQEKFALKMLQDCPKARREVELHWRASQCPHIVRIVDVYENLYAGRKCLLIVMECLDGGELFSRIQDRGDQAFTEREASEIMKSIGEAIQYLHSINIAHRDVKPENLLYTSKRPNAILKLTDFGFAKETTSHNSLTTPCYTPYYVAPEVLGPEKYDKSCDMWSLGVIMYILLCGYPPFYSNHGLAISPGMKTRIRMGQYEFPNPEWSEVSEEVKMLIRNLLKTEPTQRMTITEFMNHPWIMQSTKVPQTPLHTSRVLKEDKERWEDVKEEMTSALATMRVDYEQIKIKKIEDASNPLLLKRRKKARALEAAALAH

Compound | IC50 ([2]; Homo sapiens, PBMC, 24 h) [nM] | IC50 (p38 MAPK/MK2) [nM] | half-life at 1 μM [4] [min] | further results
Cc1cnc(-c2cccc(S(C)(=O)=O)c2)cc1-n1c(C)cc(OCc2ncc(F)cc2F)c(Cl)c1=O [Compound 11] | 18.4 | 14.6 | > 280 | half-life at 1 μM [1]: 254 min; half-life at 1 μM [3]: 227 min
Cc1cnc(-c2cccc([C@@](C)(O)CO)c2F)c(F)c1-n1c(C)cc(OCc2ncc(F)cc2F)c(Cl)c1=O [Compound 112-P1] | 0.44 | 0.13 | > 280 | 
Cc1cnc(-c2cccc([C@@H](O)CO)c2F)cc1-n1c(C)cc(OCc2ncc(F)cc2F)c(Cl)c1=O [Compound 151-P1] | 12.9 | 1.56 |  | 
CNC(=O)C(C)(O)c1cc(-c2ncc(C)c(-n3c(C)cc(OCc4ncc(F)cc4F)c(Cl)c3=O)c2F)ccc1F (stereo not drawn) [Compound 124-P2] |  | 0.1 | > 280 | 
Cc1cnc(-c2cccc(C(=O)N(C)C)c2)cc1-n1c(C)cc(OCc2ncc(F)cc2F)c(Cl)c1=O [Compound 3] |  | 21.7 |  | IC50 (p38 MAPK/MK5): > 10 µM
Cc1cnc(-c2ccc(F)c(C(C)(C)O)c2)cc1-n1c(C)cc(OCc2ncc(F)cc2F)c(Cl)c1=O [Compound 88-P2] |  | 2.11 | > 280 | 
Cc1cnc(-c2ccc(F)c(C(C)(C)O)c2)c(F)c1-n1c(C)cc(OCc2ncc(F)cc2F)c(Cl)c1=O [Compound 70-P1] | 11.2 | 0.38 | > 280 | 
[2H]C([2H])(Oc1cc(C)n(-c2cc(-c3ccc(F)c([C@@](C)(O)CO)c3F)ncc2C)c(=O)c1Cl)c1ncc(F)cc1F [Compound 145-P1] | 8.51 | 1.19 | > 280 | half-life at 1 μM [1]: > 280 min; half-life at 1 μM [3]: > 280 min
CNC(=O)c1cccc(-c2cc(-n3c(C)cc(OCc4ncc(F)cc4F)c(Cl)c3=O)c(C)cn2)c1F [Compound 20] |  | 1.03 |  | IC50 ([2]; 24 hours): 8.68 nM
Cc1cnc(-c2ccnc(C(C)(C)O)n2)cc1-n1c(C)cc(OCc2ncc(F)cc2F)c(Cl)c1=O [Compound C, reference compound] | 26.4 |  |  | 
Cc1cnc(-c2ccc(F)c(C(C)(O)C(N)=O)c2)c(F)c1-n1c(C)cc(OCc2ncc(F)cc2F)c(Cl)c1=O (stereo not drawn) [Compound 128-P1] |  | 0.15 | > 280 | 
Cc1cnc(-c2ccc(F)c([C@](C)(O)CO)c2)c(F)c1-n1c(C)cc(OCc2ncc(F)cc2F)c(Cl)c1=O [Compound 51-P2] |  | 0.71 |  | IC50 (p38 MAPK/MK5): 4.49 µM
Cc1cc(OCc2ncc(F)cc2F)c(Cl)c(=O)n1-c1ccnc(-c2cccc(C(C)(C)O)c2F)c1 [Compound 141] | 14.1 | 0.794 |  | half-life at 1 μM [1]: > 280 min; half-life at 1 μM [3]: 151 min
Cc1cnc(-c2ccc(F)c(C(C)(C)O)c2F)cc1-n1c(C)cc(OCc2ncc(F)cc2F)c(Cl)c1=O [Compound 111-P2] | 1.43 | 0.22 | > 280 | half-life at 1 μM [1]: > 280 min; half-life at 1 μM [3]: > 280 min
Cc1cnc(-c2cccc(C(N)=O)c2)c(F)c1-n1c(C)cc(OCc2ncc(F)cc2F)c(Cl)c1=O [Compound 30-P1] | 8.68 | 0.16 |  | AUC(0-t) [5, 6]: 1100 ng·h/mL; clearance [5, 6]: 15.2 mL/min/kg; half-life [5, 6]: 28.2 min; C0 [5, 6]: 2410 ng/mL; Vd [5, 6]: 0.41 L/kg; AUC(0-t) [5, 7]: 2640 ng·h/mL; bioavailability [5, 7]: 48%; half-life [5, 7]: 199 min; Cmax [5, 7]: 1570 ng/mL; IC50 (p38 MAPK/MK5): 5.66 µM
Cc1cnc(-c2cccc(C(C)(C)CO)c2F)cc1-n1c(C)cc(OCc2ncc(F)cc2F)c(Cl)c1=O [Compound 137] | 0.84 | 11.7 |  | 
Cc1cnc(-c2ccc(F)c([C@@](C)(O)CO)c2F)c(F)c1-n1c(C)cc(OCc2ncc(F)cc2F)c(Cl)c1=O [Compound 113-P1] | 1.7 | 0.09 | > 280 | 
[2H]C([2H])(Oc1cc(C)n(-c2cc(-c3cccc([C@@](C)(O)CO)c3F)ncc2C)c(=O)c1Cl)c1ncc(F)cc1F [Compound 146-P1] | 3.38 | 1.43 | > 280 | half-life at 1 μM [1]: 137 min; half-life at 1 μM [3]: > 280 min
Cc1cnc(-c2cccc(C(=O)N(C)C)c2)c(F)c1-n1c(C)cc(OCc2ncc(F)cc2F)c(Cl)c1=O [Compound 32] |  | 3.65 |  | IC50 ([2]; 24 hours): 2.89 nM; IC50 (p38 MAPK/MK5): 6.25 µM
Cc1cnc(-c2cccc(S(C)(=O)=O)c2)c(F)c1-n1c(C)cc(OCc2ncc(F)cc2F)c(Cl)c1=O [Compound 33-P1] | 2.93 | 0.056 |  | AUC(0-t) [5, 6]: 1580 ng·h/mL; clearance [5, 6]: 10.8 mL/min/kg; half-life [5, 6]: 58.8 min; C0 [5, 6]: 3200 ng/mL; Vd [5, 6]: 0.32 L/kg; AUC(0-t) [5, 7]: 2800 ng·h/mL; bioavailability [5, 7]: 36.9%; half-life [5, 7]: 119 min; Cmax [5, 7]: 3670 ng/mL
CNC(=O)c1cccc(-c2cc(-n3c(C)cc(OCc4ncc(F)cc4F)c(Cl)c3=O)c(C)cn2)c1F (single isomer, unassigned) [Compound 20-P2] |  | 0.27 | > 280 | half-life at 1 μM [1]: > 280 min; IC50 ([2]; 24 hours): 4.2 nM; half-life at 1 μM [3]: > 280 min
